From US7579370B2, “Fused heterocycles” (Sepracor Inc., priority 2006, dated 2009)

Legend:
Sprague-Dawley rats = experiment: Rat Chung model (L5 spinal nerve ligation), paw withdrawal threshold with von Frey hairs; assay type: in vivo
Method: Adult male Sprague-Dawley rats, weighing 200-230 g at the time of surgery, were used. They were housed in groups of 4 in an air-conditioned room on a 12 h light/dark cycle. Food and water were available ad libitu. The animals were allowed to acclimatize to the experimental environment for three days by leaving them on a lifted metal mesh for at least 40 min. The baseline paw withdrawal threshold (PWT) was examined using a series of graduated von Frey hairs for 3 consecutive days before surgery and re-assessed on the 7th day after surgery and on the 11th to 14th day before drug dosing. The rat Chung model was prepared as described by Kim and Chung (1992). The rat was anaesthetized with 5% isoflurane mixed with oxygen (2 L per min) followed by an i.p. injection of sodium pentobarbitone at 50 mg/kg. The back was shaved and sterilized with 75% ethanol. The animal was placed in a prone position and a para-medial incision was made on the skin covering L4-6 level. The L5 spinal nerve was carefully isolated and tightly ligated with 6/0 silk suture. The wound was then closed in layers after a complete hemostasis. A single dose of antibiotics (Amoxipen 15 mg/rat, ip) was routinely given for prevention of infection after surgery. The animals were placed in a temperature controlled recovery chamber until fully awake before being returned to the home cage. The animals were placed in individual Perspex boxes on a raised metal mesh for at least 40 min before the test. Starting with the filament of lowest force, each filament was applied perpendicularly to the center of the ventral surface of the paw until slightly bent for 6 seconds. If the animal withdrew or lifted the paw upon stimulation, then a hair with force immediately lower than that tested was used. If no response was observed, then a hair with force immediately higher was tested. The lowest amount of force required to induce reliable responses (positive in 3 out of 5 trials) was recorded as the value of PWT. Only those animals with significant allodynia (PWT≦3.5 g) were selected for drug dosing experiments. The rats in a neuropathic pain state were randomly divided into experimental groups: Vehicle group and 1 group had 8 rats and the gabapentin group had 9 rats. The drug test was carried out 12 to 14 days after surgery. Isotonic 50 mM phosphate buffer (PB), dosed orally at 3 mL/kg, served as the vehicle control. Gabapentin was dissolved in normal saline and given orally at 100 mg/kg. […] The PWT was assessed at 1, 3, 6 and 24 h following drug or vehicle administration. The animals were returned to their home cage for a break (about 30 min) between two neighboring testing time points. One-way analysis of variance (ANOVA) (SPSS software) was used for statistical analysis to compare different groups on the same time points. Paired Student -t test was used to compare different time points in the same group. The significance level was set at P<0.05.

Human DAAO = Human DAAO (Homo sapiens, UniProt P14920); experiment: D-Amino Acid Oxidase enzyme assay (D-serine, horseradish peroxidase/Amplex Red coupled); assay type: biochemical; conditions: D-serine 5 mM, pH 7.4; read-out: Human DAAO Inhibition [IC50]
Sequence of Human DAAO (P14920 whole entry): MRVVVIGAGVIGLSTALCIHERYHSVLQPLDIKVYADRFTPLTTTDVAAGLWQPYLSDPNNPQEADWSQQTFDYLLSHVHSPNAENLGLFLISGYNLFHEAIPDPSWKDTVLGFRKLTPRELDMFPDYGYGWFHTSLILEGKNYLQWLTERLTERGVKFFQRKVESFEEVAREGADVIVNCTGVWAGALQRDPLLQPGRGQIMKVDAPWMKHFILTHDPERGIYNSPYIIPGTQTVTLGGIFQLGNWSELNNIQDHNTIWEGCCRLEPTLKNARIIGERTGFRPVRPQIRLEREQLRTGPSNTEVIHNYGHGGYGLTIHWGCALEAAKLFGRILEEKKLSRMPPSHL
Method: This coupled reaction uses the enzyme substrate Amplex Red (Molecular Probes), which is converted to the fluorescent reaction product, resorufin (excitation 530-560 nm; emission ˜590 nm). Although DAAO has a higher pH optimum, all reagents were prepared in 50 mM sodium phosphate buffer at pH 7.4 and inhibition curves were generated at this pH.
The reactions were initiated by addition of DAAO enzyme while the fluorescence was monitored. […] Inhibition curves were generated in the presence of varying concentrations of the inhibitor and IC50 values were calculated for each inhibitor.

| SMILES | IC50 (Human DAAO) | also measured |
| --- | --- | --- |
| O=C(O)c1cc2occc2[nH]1 [Compound 11, 4H-Furo[3,2-b]pyrrole-5-carboxylic acid] | – | Effect on paw withdrawal threshold (PWT) (Sprague-Dawley rats; oral dose of 10 mg/kg): significantly elevated the PWT |
| O=C(O)c1cc2occ(CCc3ccccc3)c2[nH]1 [Compound 17, 3-phenethyl-4H-furo[3,2-b]pyrrole-5-carboxylic acid] | < 1 µM | – |
| O=C(O)c1cc2oc(Cc3ccccc3)cc2[nH]1 [Compound 24, 2-benzyl-4H-furo[3,2-b]pyrrole-5-carboxylic acid] | < 100 µM | – |
| O=C(O)c1cc2occ(Cc3ccccc3)c2[nH]1 [Compound 26, 3-benzyl-4H-furo[3,2-b]pyrrole-5-carboxylic acid] | < 100 µM | – |
| C=Cc1coc2cc(C(=O)O)[nH]c12 [Compound 32, 3-vinyl-4H-furo[3,2-b]pyrrole-5-carboxylic acid] | < 0.1 µM | – |
| C/C=C\c1coc2cc(C(=O)O)[nH]c12 [Compound 46, (Z)-3-(prop-1-enyl)-4H-furo[3,2-b]pyrrole-5-carboxylic acid] | < 100 µM | – |
| O=C(O)c1cc2occ(/C=C/c3ccccc3)c2[nH]1 [Compound 48, (E)-3-Styryl-4H-furo[3,2-b]pyrrole-5-carboxylic acid] | < 100 µM | – |
| NCC1(CC(=O)O)CCCCC1 [Gabapentin] | – | Course of the effect on PWT after the peak (Sprague-Dawley rats; orally dosed at 100 mg/kg): gradually declined from 6 hours onwards; Time at which the effect on PWT commenced after dosing (Sprague-Dawley rats; orally dosed at 100 mg/kg): first hour; Time of peak effect on PWT after dosing (Sprague-Dawley rats; orally dosed at 100 mg/kg): 3 h; Effect on paw withdrawal threshold (PWT) (Sprague-Dawley rats; orally dosed at 100 mg/kg, positive control): significantly increased the PWT |
